How the values were obtained:
[1] = test system: mutant mice deficient in endothelial nitric oxide synthase (eNOS null); assay: Regional cerebral blood flow (rCBF) by laser-Doppler flowimetry after L-arginine infusion, eNOS null mice; type: in vivo; conditions: L-arginine 450 mg/kg i.v.
Excerpt: (§1) The number of mice in each group is indicated in parenthesis.

[2] = mouse, in vivo
[3] = Uptake of tritium labeled Dizocilpine in MCA territory after MCA occlusion (Example 6, autoradiography); type: in vivo, mice; conditions: L-arginine 400 mg/kg infusion over 10 min acutely or Simvastatin SC 3 weeks, Example 6 written in present tense
Description: 4 groups of mice receive the following treatments by SQ administration for 3 weeks, followed on day 22 by a surgery where an MCA occlusion is induced by an insertion of a modified 8-0 suture. […] Thereafter the mice are sacrificed at 15 and 30 minutes, and the brain tissue is frozen and sectioned and then analyzed by autoradiographic methods to quantitate the amount of radiolabeled compound present within the MCA territory on the side of occlusion.
1) 2 groups of saline SC injection over 3 weeks
a) 1 group after surgery received radio labeled Dizocilpine
2) 2 groups of Simvastain SC injection over 3 weeks

wild type mice = assay: Regional cerebral blood flow (rCBF) by laser-Doppler flowimetry after L-arginine infusion, wild type and simvastatin-treated mice; type: in vivo
Excerpt: as §1

[4] = L-arginine infusion in simvastatin-treated mice
[5] = wild type mice, L-arginine 450 mg/kg i.v.

Compound	rCBF change during the 40 minute recording period [1]	rCBF response (in words) [1]	blood pH after infusion (in words) [2]	uptake of Dizocilpine within the underperfused brain [3]	elevations in regional cerebral blood flow (RCBF) (wild type mice; L-arginine 300 mg/kg i.v., preliminary experiments n=4, modest and variable)	additional time for which rCBF increases sustained (wild type mice; [4])	time of maximum rCBF increase (wild type mice; [4])	maximum rCBF increase over simvastatin baseline (wild type mice; L-arginine infusion in simvastatin-treated mice, at 15-20 min)	increase in blood flow in the 30-40 minute epoch, simvastatin treated compared to non treated control (wild type mice; L-arginine infusion, P<0.05)	time at which increase in RCBF began (wild type mice; [5])	time of maximum rCBF values (wild type mice; [5])	time at which RCBF increase achieved statistical significance (wild type mice; wild type mice, L-arginine 450 mg/kg i.v., after infusion)	maximum rCBF increase above baseline (wild type mice; wild type mice, L-arginine 450 mg/kg i.v., parietal cortex, at 20-25 min)	increase of baseline rCBF (wild type mice; after chronic daily administration of simvastatin alone)
N=C(N)NCCC[C@H](N)C(=O)O [L-arginine]	−4 to +5%	did not increase rCBF	lower	higher uptake	10%	20 min	15 to 20 min	29-31%	larger	5 to 10 min	20 to 25 min	10 to 15 min	26%	
CCC(C)(C)C(=O)O[C@H]1C[C@@H](C)C=C2C=C[C@H](C)[C@H](CC[C@@H]3C[C@@H](O)CC(=O)O3)[C@H]21 [simvastatin]														25%
